Measurements taken from patent US7122209B2, “Oral compositions for the treatment of non-diabetic obese mammals, including humans” (Quimica Farmaceutica Bayer S.A., priority 2001, dated 2006).

What was measured:
[1] = tested on: cafeteria-fed rats; test: Diet-induced obesity (cafeteria diet) rat model, oral tungstate in drinking water; type: in vivo, male Wistar rats
Text: The so-called “cafeteria diet” consists of an offering of freshly and highly palatable supermarket food items with high fat and/or carbohydrate content in addition to standard laboratory chow. […] Moreover, it is also known that ingestion of a cafeteria diet results in increased thermogenesis and fat deposition.
(§1) For the present experiments, male Wistar rats (IFFA CREDO), weighing 0.20–0.22 kg, were caged individually in a 12:12-h light-dark cycle, temperature and humidity controlled environment. After an adaptation period of 1 week the animals were divided into two dietary groups. One group was fed standard chow diet (2.7% in fat content, type AO4 from Panlab, Barcelona, Spain) and the second group was fed a cafeteria diet (30% in fat content). The cafeteria diet consisted of a daily offering of cookies, liver pate, bacon, standard chow and whole milk supplemented with 333 g/l sucrose and 10 g/l of a mineral and vitamin complex (Gevral, Cynamid Ibérica, Madrid, Spain). All the food items were weighed and presented in excess.
An initial set of forty rats were divided into two sets of dietary conditions, control (standard diet, n=15) and cafeteria (cafeteria diet, n=25), and fed for 30 days. In order to evaluate the effects of tungstate treatment, animals from each condition were divided into two new subsets: tungstate treated and tungstate untreated groups (simply treated and untreated in the following). The treated rats were given a solution of 2 mg/ml of sodium tungstate dihydrate in distilled water.
The treatment was carried out for 32 days. Blood glucose measurements as well as blood samples were collected before (days 0–30), during (days 31–62) and at the end of the experimental period. Selective food items consumption (corrected by the amount of water lost for each) and the weight of all animals were recorded daily.
At the end of the treatment period, rats from treated (n=8) and untreated (n=7) cafeteria-fed groups and rats from both treated (n=3) and untreated (n=3) standard-fed groups were killed and several tissues (gastrocnemius muscle, intercapular brown adipose tissue (iBAT), epididimal white adipose tissue (WAT), liver, pancreas and brain) were excised, weighed, cleaned and rapidly frozen in liquid nitrogen or fixed in formol 10% for future studies.
Remaining rats (n=19) were withdrawn the tungstate treatment, but maintained the dietary conditions, in order to start a 35 day recovery period. After this time animals were killed and processed as above. Selective food items consumption (corrected by the amount of water lost for each) and the weight of all animals were recorded daily.
The data obtained in this study allowed to establish an obesity criteria. […]

[2] = tested on: standard-fed rats; test: Standard-fed rats, oral tungstate in drinking water; type: in vivo, male Wistar rats
Text: as §1
An initial set of forty rats were divided into two sets of dietary conditions, control (standard diet, n=15) and cafeteria (cafeteria diet, n=25), and fed for 30 days. […]
The treatment was carried out for 32 days. […] Selective food items consumption (corrected by the amount of water lost for each) and the weight of all animals were recorded daily. […]
Remaining rats (n=19) were withdrawn the tungstate treatment, but maintained the dietary conditions, in order to start a 35 day recovery period. […] Selective food items consumption (corrected by the amount of water lost for each) and the weight of all animals were recorded daily.

[3] = Solubility in water (description); type: physicochemical

For `O.O.[Na+].[Na+].[O]=[W](=[O])([O-])[O-]` [sodium tungstate dihydrate], the food intake ([1]; cafeteria diet rat model, during weight loss) was “without decrease of food intake”, the body weight increase ([1]; cafeteria-fed rats, 2 mg/ml sodium tungstate dihydrate in distilled water, treatment period days 31-62, vs untreated) was “significantly diminished body weight increase” and the “body weight increase difference between treated and untreated rats at day 97” value ([1]; cafeteria-fed rats, end of 35 day recovery period) was “quite important”. The “body weight after withdrawal of treatment (reversibility)” value ([1]; cafeteria-fed rats, recovery period days 63-97) was “started to gain body weight quickly”, the body weight increase ([2]; 2 mg/ml sodium tungstate dihydrate in distilled water, treatment period days 31-62, vs untreated) was “significantly diminished body weight increase” and the “body weight after withdrawal of treatment (reversibility)” value ([2]; recovery period days 63-97) was “started to gain body weight quickly”. The solubility in water [3] was “easily dissolved in water”.
